According to US8680159B2, “Bradykinin 1 receptor modulating compounds” (Gruenenthal GmbH, priority 2010, dated 2014):

Biological target: T1, B1R receptor of the rat (CHO K1 cells stably transfected with the B1R gene of the rat) (Rattus norvegicus, UniProt P97583)
T1 construct: expressed in transfected cells; host or cells: CHO K1 cells (Chinese hamster ovary), stably transfected
T1 sequence (P97583 1-337): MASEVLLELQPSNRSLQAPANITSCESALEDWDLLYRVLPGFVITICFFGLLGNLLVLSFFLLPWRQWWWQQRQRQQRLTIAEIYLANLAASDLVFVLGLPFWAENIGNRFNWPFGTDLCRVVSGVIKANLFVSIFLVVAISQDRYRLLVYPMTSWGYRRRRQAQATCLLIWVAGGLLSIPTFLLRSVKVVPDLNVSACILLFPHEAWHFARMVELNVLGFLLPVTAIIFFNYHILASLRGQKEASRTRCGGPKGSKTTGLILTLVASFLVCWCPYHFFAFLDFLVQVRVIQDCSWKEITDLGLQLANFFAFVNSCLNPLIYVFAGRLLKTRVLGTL
Test: Functional study on the bradykinin receptor 1 (B1R), Ca2+ fluorescence (Fluo-4) FLIPR/Novostar assay, rB1R cells
Format: cell-based
Conditions: CHO-K1, 10 μM, library compounds CC_H, read-out: % Inhibition (r-B1R) at 10 μM
Summary of the method: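 Test compounds (10 μM) were added first and the Ca2+ rise was scored as % activation against Lys-Des-Arg9-bradykinin (≥50 nM, human) or Des-Arg9-bradykinin (≥1 μM, rat). After 6-20 min, the matching agonist was given at its EC80, and % inhibition relative to maximal achievable inhibition was calculated.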

Row | Compound | inhibition at 10 µM
1 | CN(C(=O)c1ccc2c(c1)C(NC(=O)c1cccnc1C(F)(F)F)CC2)C1CCN(c2ccnc(S(C)(=O)=O)n2)CC1 (stereo not drawn) [CC_H-600, N-[6-[Methyl-[1-(2-methylsulfonyl-pyrimidin-4-yl)-piperidin-4-yl]-carbamoyl]-2,3-dihydro-1H-inden-1-yl]-2-(trifluoromethyl)-pyridine-3-carboxylic acid amide] | 91%
2 | CN(C)C(=O)c1cc(N2CCC(N(C)C(=O)c3ccc4c(c3)C(NC(=O)c3cccnc3C(F)(F)F)CC4)CC2)ccn1 (stereo not drawn) [CC_H-601, N-[6-[[1-[2-(Dimethyl-carbamoyl)-pyridin-4-yl]-piperidin-4-yl]-methyl-carbamoyl]-2,3-dihydro-1H-inden-1-yl]-2-(trifluoromethyl)-pyridine-3-carboxylic acid amide] | 74%
3 | CN(C(=O)c1ccc2c(c1)C(NC(=O)c1cccnc1C(F)(F)F)CC2)C1CCN(c2ccnc(N3CCCC3)n2)CC1 (stereo not drawn) [CC_H-603, N-[6-[Methyl-[1-(2-pyrrolidin-1-yl-pyrimidin-4-yl)-piperidin-4-yl]-carbamoyl]-2,3-dihydro-1H-inden-1-yl]-2-(trifluoromethyl)-pyridine-3-carboxylic acid amide] | 102%
4 | Cc1cc(N2CCC(N(C)C(=O)c3ccc4c(c3)C(NC(=O)c3cccnc3C(F)(F)F)CC4)CC2)nc(N(C)C)n1 (stereo not drawn) [CC_H-604, N-[6-[[1-(2-Dimethylamino-6-methyl-pyrimidin-4-yl)-piperidin-4-yl]-methyl-carbamoyl]-2,3-dihydro-1H-inden-1-yl]-2-(trifluoromethyl)-pyridine-3-carboxylic acid amide] | 102%
5 | CN(C(=O)c1ccc2c(c1)C(NC(=O)c1cccnc1C(F)(F)F)CC2)C1CCN(c2ccnc(C(C)(C)C)n2)CC1 (stereo not drawn) [CC_H-606, N-[6-[[1-(2-tert-Butyl-pyrimidin-4-yl)-piperidin-4-yl]-methyl-carbamoyl]-2,3-dihydro-1H-inden-1-yl]-2-(trifluoromethyl)-pyridine-3-carboxylic acid amide] | 99%
6 | Cc1ncc2n1C(=O)N(C1CCC(N(C)C(=O)c3ccc4c(c3)C(NC(=O)c3cccnc3C(F)(F)F)CC4)CC1)C2 (stereo not drawn) [CC_H-607, N-[6-[Methyl-[4-(5-methyl-3-oxo-1,2-dihydro-imidazo[5,1-e]imidazol-2-yl)-cyclohexyl]-carbamoyl]-2,3-dihydro-1H-inden-1-yl]-2-(trifluoromethyl)-pyridine-3-carboxylic acid amide] | 96%
7 | CN(C)c1nccc(N2CCC(N(C)C(=O)c3ccc4c(c3)C(NC(=O)c3cccnc3C(F)(F)F)CC4)CC2)n1 (stereo not drawn) [CC_H-608, N-[6-[[1-(2-Dimethylamino-pyrimidin-4-yl)-piperidin-4-yl]-methyl-carbamoyl]-2,3-dihydro-1H-inden-1-yl]-2-(trifluoromethyl)-pyridine-3-carboxylic acid amide] | 102%
8 | CN(C(=O)c1ccc2c(c1)C(NC(=O)c1ccccc1Cl)CC2)C1CCN(c2ccnc(S(C)(=O)=O)n2)CC1 (stereo not drawn) [CC_H-609, 3-[(2-Chloro-benzoyl)amino]-N-methyl-N-[1-(2-methylsulfonyl-pyrimidin-4-yl)-piperidin-4-yl]-2,3-dihydro-1H-indene-5-carboxylic acid amide] | 102%
9 | CN(C(=O)c1ccc2c(c1)C(NC(=O)c1cccnc1C(F)(F)F)CC2)C1CCN(c2ccnc(C3CC3)n2)CC1 (stereo not drawn) [CC_H-610, N-[6-[[1-(2-Cyclopropyl-pyrimidin-4-yl)-piperidin-4-yl]-methyl-carbamoyl]-2,3-dihydro-1H-inden-1-yl]-2-(trifluoromethyl)-pyridine-3-carboxylic acid amide] | 101%
10 | CN(C(=O)c1ccc2c(c1)C(NC(=O)c1ccccc1Cl)CC2)C1CCN(c2ccnc(N3CCCC3)n2)CC1 (stereo not drawn) [CC_H-612, 3-[(2-Chloro-benzoyl)amino]-N-methyl-N-[1-(2-pyrrolidin-1-yl-pyrimidin-4-yl)-piperidin-4-yl]-2,3-dihydro-1H-indene-5-carboxylic acid amide] | 101%
11 | CN(C(=O)c1ccc2c(c1)C(NC(=O)CCC1CCCC1)CC2)C1CCN(c2ccnc(S(C)(=O)=O)n2)CC1 (stereo not drawn) [CC_H-613, 3-(3-Cyclopentyl-propanoylamino)-N-methyl-N-[1-(2-methylsulfonyl-pyrimidin-4-yl)-piperidin-4-yl]-2,3-dihydro-1H-indene-5-carboxylic acid amide] | 90%
12 | Cc1cc(N2CCC(N(C)C(=O)c3ccc4c(c3)C(NC(=O)c3ccccc3Cl)CC4)CC2)nc(N(C)C)n1 (stereo not drawn) [CC_H-614, 3-[(2-Chloro-benzoyl)amino]-N-[1-(2-dimethylamino-6-methyl-pyrimidin-4-yl)-piperidin-4-yl]-N-methyl-2,3-dihydro-1H-indene-5-carboxylic acid amide] | 101%
13 | CN(C)C(=O)c1cc(N2CCC(N(C)C(=O)c3ccc4c(c3)C(NC(=O)CCC3CCCC3)CC4)CC2)ccn1 (stereo not drawn) [CC_H-615, 4-[4-[[3-(3-Cyclopentyl-propanoylamino)-2,3-dihydro-1H-inden-5-carbonyl]-methyl-amino]-piperidin-1-yl]-N,N-dimethyl-pyridine-2-carboxylic acid amide] | 65%
14 | CN(C(=O)c1ccc2c(c1)C(NC(=O)c1ccccc1Cl)CC2)C1CCN(c2ccnc(C(C)(C)C)n2)CC1 (stereo not drawn) [CC_H-616, N-[1-(2-tert-Butyl-pyrimidin-4-yl)-piperidin-4-yl]-3-[(2-chloro-benzoyl)amino]-N-methyl-2,3-dihydro-1H-indene-5-carboxylic acid amide] | 101%
15 | Cc1ncc2n1C(=O)N(C1CCC(N(C)C(=O)c3ccc4c(c3)C(NC(=O)c3ccccc3Cl)CC4)CC1)C2 (stereo not drawn) [CC_H-618, 3-[(2-Chloro-benzoyl)amino]-N-methyl-N-[4-(5-methyl-3-oxo-1,2-dihydro-imidazo[5,1-e]imidazol-2-yl)-cyclohexyl]-2,3-dihydro-1H-indene-5-carboxylic acid amide] | 84%
16 | CN(C(=O)c1ccc2c(c1)C(NC(=O)CCC1CCCC1)CC2)C1CCN(c2ccnc(N3CCCC3)n2)CC1 (stereo not drawn) [CC_H-620, 3-(3-Cyclopentyl-propanoylamino)-N-methyl-N-[1-(2-pyrrolidin-1-yl-pyrimidin-4-yl)-piperidin-4-yl]-2,3-dihydro-1H-indene-5-carboxylic acid amide] | 102%
17 | CN(C(=O)c1ccc2c(c1)C(NC(=O)c1cccnc1C(F)(F)F)CC2)C1CCN(c2ncncc2F)CC1 (stereo not drawn) [CC_H-621, N-[6-[[1-(5-Fluoro-pyrimidin-4-yl)-piperidin-4-yl]-methyl-carbamoyl]-2,3-dihydro-1H-inden-1-yl]-2-(trifluoromethyl)-pyridine-3-carboxylic acid amide] | 98%

Same assay, conditions: CHO-K1, 10 μM, read-out: % Inhibition (r-B1R) at 10 μM

Row | Compound | inhibition at 10 µM
18 | CN(C(=O)NC1CCc2ccc(C(=O)N(C)C3CCN(c4ccc5cnccc5c4)CC3)cc21)c1ccc(Cl)cc1Cl (stereo not drawn) [CC_H-376, 3-[[(2,4-Dichlorophenyl)-methyl-carbamoyl]amino]-N-(1-isoquinolin-6-yl-piperidin-4-yl)-N-methyl-2,3-dihydro-1H-indene-5-carboxylic acid amide] | 77%
19 | CCCS(=O)(=O)NC1CCc2ccc(C(=O)N(C)C3CCN(c4ccc5cnccc5c4)CC3)cc21 (stereo not drawn) [CC_H-378, N-(1-Isoquinolin-6-yl-piperidin-4-yl)-N-methyl-3-[(propylsulfonyl)amino]-2,3-dihydro-1H-indene-5-carboxylic acid amide] | 101%
20 | CC(C)CC(=O)NC1CCc2ccc(C(=O)N(C)C3CCN(c4ccc5cnccc5c4)CC3)cc21 (stereo not drawn) [CC_H-379, N-(1-Isoquinolin-6-yl-piperidin-4-yl)-N-methyl-3-(3-methyl-butanoylamino)-2,3-dihydro-1H-indene-5-carboxylic acid amide] | 110%
21 | CCCC(=O)NC1CCc2ccc(C(=O)N(C)C3CCN(c4ccc5cnccc5c4)CC3)cc21 (stereo not drawn) [CC_H-380, 3-(Butanoylamino)-N-(1-isoquinolin-6-yl-piperidin-4-yl)-N-methyl-2,3-dihydro-1H-indene-5-carboxylic acid amide] | 103%
22 | CN(C(=O)c1ccc2c(c1)C(NC(=O)CCC1CCCC1)CC2)C1CCN(c2ccc3cnccc3c2)CC1 (stereo not drawn) [CC_H-381, 3-(3-Cyclopentyl-propanoylamino)-N-(1-isoquinolin-6-yl-piperidin-4-yl)-N-methyl-2,3-dihydro-1H-indene-5-carboxylic acid amide] | 109%
23 | CN(C(=O)c1ccc2c(c1)C(NS(=O)(=O)Cc1cccc(C(F)(F)F)c1)CC2)C1CCN(c2ccc3cnccc3c2)CC1 (stereo not drawn) [CC_H-383, N-(1-Isoquinolin-6-yl-piperidin-4-yl)-N-methyl-3-[[[3-(trifluoromethyl)phenyl]-methylsulfonyl]amino]-2,3-dihydro-1H-indene-5-carboxylic acid amide] | 50%
24 | CN(C(=O)c1ccc2c(c1)C(NS(=O)(=O)Cc1ccccc1F)CC2)C1CCN(c2ccc3cnccc3c2)CC1 (stereo not drawn) [CC_H-384, 3-[[(2-Fluorophenyl)-methylsulfonyl]amino]-N-(1-isoquinolin-6-yl-piperidin-4-yl)-N-methyl-2,3-dihydro-1H-indene-5-carboxylic acid amide] | 109%
